In patent US20130096105A1, “ArylSulfonamide Based Matrix Metalloprotease Inhibitors” (NOVARTIS AG, priority 2008, published 2013):

Biological target: T1, Gelatinase (MMP-2) (Homo sapiens, UniProt P08253)
T1 sequence (P08253 110-660): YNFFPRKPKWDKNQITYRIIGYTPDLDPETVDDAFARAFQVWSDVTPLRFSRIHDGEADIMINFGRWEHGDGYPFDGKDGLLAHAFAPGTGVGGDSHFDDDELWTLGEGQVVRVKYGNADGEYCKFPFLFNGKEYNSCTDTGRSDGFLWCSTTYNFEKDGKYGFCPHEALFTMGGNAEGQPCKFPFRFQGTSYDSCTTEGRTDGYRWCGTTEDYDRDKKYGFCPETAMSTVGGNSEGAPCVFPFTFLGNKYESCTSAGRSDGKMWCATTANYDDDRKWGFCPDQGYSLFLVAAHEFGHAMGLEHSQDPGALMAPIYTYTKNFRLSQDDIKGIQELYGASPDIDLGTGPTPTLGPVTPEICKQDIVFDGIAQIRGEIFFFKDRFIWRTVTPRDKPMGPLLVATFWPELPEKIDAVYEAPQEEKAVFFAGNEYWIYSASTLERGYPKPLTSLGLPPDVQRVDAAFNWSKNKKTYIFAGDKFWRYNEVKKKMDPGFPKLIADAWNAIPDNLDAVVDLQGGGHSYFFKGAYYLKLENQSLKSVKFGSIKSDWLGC
Experiment: Gelatinase (MMP-2) inhibitory activity, fluorogenic peptide substrate cleavage
Format: biochemical
Details: read-out: MMP02 IC50
Description: (§1) Gelatinase (MMP-2) inhibitory activities can be determined as follows: Stock solutions of substrate (MCA-Lys-Pro-Leu-Gly-Leu-Dpa-Ala-Arg-NH2) are prepared in DMSO at a concentration of 1.4 mM. Stock solutions of inhibitors (0.03 μM-3 mM) are also prepared in DMSO. The inhibitors are diluted into the assay solutions, and the controls use an equal volume of DMSO so that the final DMSO concentration from the inhibitor and substrate dilutions in all assays is 1.0%. Assays are performed in an assay buffer (100 mM sodium chloride, 10 μM ZnCl. Sub 2, 10 mM CaCl2, 100 mM Tris-Cl pH7.5, 0.05% Brij-35), containing 1.0% DMSO from the substrate and inhibitor additions. The substrate concentration used in the assays is 5 μM. The assays are carried out at 20-25° C. The fluorescence changes, as a result of substrate cleavage, are monitored using an excitation wavelength of 325 nm and an emission wavelength of 405 nm. The reaction mixtures are added in duplicate into appropriate wells of a 384-well assay plate. The reaction mixtures are preincubated with the inhibitors for 60 minutes The reactions are started by the addition of MMP substrate, and the fluorescence intensity changes are measured after 60 minutes The apparent enzyme activity in the presence of an inhibitor is then compared with that in the absence of any inhibitor to determine the inhibition effect of the inhibitor. These techniques are within the knowledge of one skilled in the art. The inhibition results are expressed as the inhibitor concentrations required to effect 50% inhibition (IC50) of the enzyme activity, as compared with the control (non-inhibited) reactions.

Compound | IC50 [nM]
NS(=O)(=O)c1cc(C(=O)c2ccc(C(=O)NCCc3ccccn3)cc2)ccc1Cl [Example 36, 4-(4-Chloro-3-sulfamoyl-benzoyl)-N-(2-pyridin-2-yl-ethyl)-benzamide] | 14900
NS(=O)(=O)c1cc(C(=O)c2ccc(C(=O)NCCCCc3ccccc3)cc2)ccc1Cl [Example 37, 4-(4-Chloro-3-sulfamoyl-benzoyl)-N-(4-phenyl-butyl)-benzamide] | 22800
NS(=O)(=O)c1cc(C(=O)c2ccc(-c3ccsc3)cc2)ccc1Cl [Example 40, 2-Chloro-5-(4-thiophen-3-yl-benzoyl)-benzenesulfonamide] | > 30000
N#Cc1ccc(C(=O)c2ccc(Cl)c(S(N)(=O)=O)c2)cc1 [Example 44, 2-Chloro-5-(4-cyano-benzoyl)-benzenesulfonamide] | 620
Cc1ccc(C(=O)c2ccc(Cl)c(S(N)(=O)=O)c2)c(Br)c1 [Example 45, 5-(2-Bromo-4-methyl-benzoyl)-2-chloro-benzenesulfonamide] | 53
Cc1cc(Br)ccc1C(=O)c1ccc(Cl)c(S(N)(=O)=O)c1 [Example 46, 5-(4-Bromo-2-methyl-benzoyl)-2-chloro-benzenesulfonamide] | 150
NS(=O)(=O)c1cc(C(=O)c2ccccc2)ccc1Cl [Example 49, 5-Benzoyl-2-chloro-benzenesulfonamide] | > 30000
NS(=O)(=O)c1cc(C(=O)c2ccc(F)cc2)ccc1Cl [Example 51, 2-Chloro-5-(4-fluoro-benzoyl)-benzenesulfonamide] | 14600
NS(=O)(=O)c1cc(C(=O)c2ccc(O)cc2)ccc1Cl [Example 55, 2-Chloro-5-(4-hydroxy-benzoyl)-benzenesulfonamide] | 25500
CC(C)COc1ccc(C(=O)c2ccc(Cl)c(S(N)(=O)=O)c2)cc1 [Example 58, 2-Chloro-5-(4-isobutoxy-benzoyl)-benzenesulfonamide] | > 30000
NS(=O)(=O)c1cc(C(=O)c2ccc(-c3ccc(C(F)(F)F)cc3)cc2)ccc1Cl [Example 62, 2-Chloro-5-(4′-trifluoromethyl-biphenyl-4-carbonyl)-benzenesulfonamide] | 2210
CCc1ccc(-c2ccc(C(=O)c3ccc(Cl)c(S(N)(=O)=O)c3)cc2)cc1 [Example 63, 2-Chloro-5-(4′-ethyl-biphenyl-4-carbonyl)-benzenesulfonamide] | 2050
NS(=O)(=O)c1cc(C(=O)c2ccc(-c3ccccc3F)cc2)ccc1Cl [Example 64, 2-Chloro-5-(2′-fluoro-biphenyl-4-carbonyl)-benzenesulfonamide] | 4050
NS(=O)(=O)c1cc(C(=O)c2ccc(-c3ccc(Cl)cc3)cc2)ccc1Cl [Example 66, 2-Chloro-5-(4′-chloro-biphenyl-4-carbonyl)-benzenesulfonamide] | 720
NS(=O)(=O)c1cc(C(=O)c2ccc(-c3cccc(Br)c3)cc2)ccc1Cl [Example 67, 5-(3′-Bromo-biphenyl-4-carbonyl)-2-chloro-benzenesulfonamide] | 10200
NS(=O)(=O)c1cc(C(=O)c2ccc(-c3cccc([N+](=O)[O-])c3)cc2)ccc1Cl [Example 68, 2-Chloro-5-(3′-nitro-biphenyl-4-carbonyl)-benzenesulfonamide] | 3440
NS(=O)(=O)c1cc(C(=O)c2ccc(-c3ccc(C(=O)O)cc3)cc2)ccc1Cl [Example 73, 4′-(4-Chloro-3-sulfamoyl-benzoyl)-biphenyl-4-carboxylic acid] | 980
COC(=O)c1ccc(-c2ccc(C(=O)c3ccc(Cl)c(S(N)(=O)=O)c3)cc2)cc1 [Example 74, 4′-(4-Chloro-3-sulfamoyl-benzoyl)-biphenyl-4-carboxylic acid methyl ester] | 930
NS(=O)(=O)c1cc(C(=O)c2ccc(-c3ccccc3)cc2)ccc1Cl [Example 76, 5-(Biphenyl-4-carbonyl)-2-chloro-benzenesulfonamide] | 21700
Cc1cccc(-c2ccc(C(=O)c3ccc(Cl)c(S(N)(=O)=O)c3)cc2)c1 [Example 77, 2-Chloro-5-(3′-methyl-biphenyl-4-carbonyl)-benzenesulfonamide] | 29100

Next, values leading:

IC50 [nM] | Compound
6890 | NS(=O)(=O)c1cc(C(=O)c2ccc(C(=O)NCc3ccccc3)cc2)ccc1Cl [Example 35, N-Benzyl-4-(4-chloro-3-sulfamoyl-benzoyl)-benzamide]
300 | NS(=O)(=O)c1cc(C(=O)c2ccc(-c3ccnc(Cl)c3)cc2)ccc1Cl [Example 43, 2-Chloro-5-[4-(2-chloro-pyridin-4-yl)-benzoyl]-benzenesulfonamide]
> 30000 | COc1ccc(C(=O)c2ccc(Cl)c(S(N)(=O)=O)c2)c(OC)c1 [Example 48, 2-Chloro-5-(2,4-dimethoxy-benzoyl)-benzenesulfonamide]
29100 | CC(C)(C)NC(=O)c1ccc(C(=O)c2ccc(Cl)c(S(N)(=O)=O)c2)cc1 [Example 52, N-tert-Butyl-4-(4-chloro-3-sulfamoyl-benzoyl)-benzamide]
23400 | NS(=O)(=O)c1cc(C(=O)c2ccc(C(=O)NCCc3ccccc3)cc2)ccc1Cl [Example 54, 4-(4-Chloro-3-sulfamoyl-benzoyl)-N-phenethyl-benzamide]
1160 | NS(=O)(=O)c1cc(C(=O)c2ccc(-c3ccccc3)cc2)ccc1Cl [Example 59, 5-(Biphenyl-4-carbonyl)-2-chloro-benzenesulfonamide]
1100 | Cc1ccc(-c2ccc(C(=O)c3ccc(Cl)c(S(N)(=O)=O)c3)cc2)cc1 [Example 61, 2-Chloro-5-(4′-methyl-biphenyl-4-carbonyl)-benzenesulfonamide]
1180 | NS(=O)(=O)c1cc(C(=O)c2ccc(-c3ccc(F)cc3)cc2)ccc1Cl [Example 65, 2-Chloro-5-(4′-fluoro-biphenyl-4-carbonyl)-benzenesulfonamide]
11400 | CC(=O)Nc1cccc(-c2ccc(C(=O)c3ccc(Cl)c(S(N)(=O)=O)c3)cc2)c1 [Example 70, N-[4′-(4-Chloro-3-sulfamoyl-benzoyl)-biphenyl-3-yl]-acetamide]
1090 | O=C(c1ccc(-c2cccc(CO)c2)cc1)c1ccc(Cl)c(S(=O)(=O)O)c1 [Example 71, 2-Chloro-5-(3′-hydroxymethyl-biphenyl-4-carbonyl)-benzenesulfonic acid]
180 | NS(=O)(=O)c1cc(C(=O)c2ccc(-c3ccc(C=O)cc3)cc2)ccc1Cl [Example 72, 2-Chloro-5-(4′-formyl-biphenyl-4-carbonyl)-benzenesulfonamide]
270 | CN(C)c1ccc(C(=O)c2ccc(Cl)c(S(N)(=O)=O)c2)cc1 [Example 78, 2-Chloro-5-(4-dimethylamino-benzoyl)-benzenesulfonamide]

Biological target: Collagenase-3 (MMP-13) (Homo sapiens, UniProt P45452)
Experiment: Collagenase-3 (MMP-13) inhibitory activity, fluorogenic peptide substrate cleavage
Format: biochemical
Details: read-out: MMP13 IC50
Description: as §1
Collagenase-3 (MMP-13) inhibitory activity is determined as described above. Recombinant pro-collagenase-3 is activated with 1 mM APMA, and stored in the assay buffer after extensive dialysis in the assay buffer.

Compound | IC50 [nM]
NS(=O)(=O)c1cc(C(=O)c2ccc(C(=O)NCCc3ccccn3)cc2)ccc1Cl [Example 36, 4-(4-Chloro-3-sulfamoyl-benzoyl)-N-(2-pyridin-2-yl-ethyl)-benzamide] | 8540
NS(=O)(=O)c1cc(C(=O)c2ccc(C(=O)NCCCCc3ccccc3)cc2)ccc1Cl [Example 37, 4-(4-Chloro-3-sulfamoyl-benzoyl)-N-(4-phenyl-butyl)-benzamide] | 8900
NS(=O)(=O)c1cc(C(=O)c2ccc(-c3ccsc3)cc2)ccc1Cl [Example 40, 2-Chloro-5-(4-thiophen-3-yl-benzoyl)-benzenesulfonamide] | 7060
N#Cc1ccc(C(=O)c2ccc(Cl)c(S(N)(=O)=O)c2)cc1 [Example 44, 2-Chloro-5-(4-cyano-benzoyl)-benzenesulfonamide] | 560
Cc1ccc(C(=O)c2ccc(Cl)c(S(N)(=O)=O)c2)c(Br)c1 [Example 45, 5-(2-Bromo-4-methyl-benzoyl)-2-chloro-benzenesulfonamide] | 80
Cc1cc(Br)ccc1C(=O)c1ccc(Cl)c(S(N)(=O)=O)c1 [Example 46, 5-(4-Bromo-2-methyl-benzoyl)-2-chloro-benzenesulfonamide] | 210
NS(=O)(=O)c1cc(C(=O)c2ccccc2)ccc1Cl [Example 49, 5-Benzoyl-2-chloro-benzenesulfonamide] | 24800
NS(=O)(=O)c1cc(C(=O)c2ccc(F)cc2)ccc1Cl [Example 51, 2-Chloro-5-(4-fluoro-benzoyl)-benzenesulfonamide] | 18700
NS(=O)(=O)c1cc(C(=O)c2ccc(O)cc2)ccc1Cl [Example 55, 2-Chloro-5-(4-hydroxy-benzoyl)-benzenesulfonamide] | 27500
CC(C)COc1ccc(C(=O)c2ccc(Cl)c(S(N)(=O)=O)c2)cc1 [Example 58, 2-Chloro-5-(4-isobutoxy-benzoyl)-benzenesulfonamide] | 24200
NS(=O)(=O)c1cc(C(=O)c2ccc(-c3ccc(C(F)(F)F)cc3)cc2)ccc1Cl [Example 62, 2-Chloro-5-(4′-trifluoromethyl-biphenyl-4-carbonyl)-benzenesulfonamide] | 830
CCc1ccc(-c2ccc(C(=O)c3ccc(Cl)c(S(N)(=O)=O)c3)cc2)cc1 [Example 63, 2-Chloro-5-(4′-ethyl-biphenyl-4-carbonyl)-benzenesulfonamide] | 380
NS(=O)(=O)c1cc(C(=O)c2ccc(-c3ccccc3F)cc2)ccc1Cl [Example 64, 2-Chloro-5-(2′-fluoro-biphenyl-4-carbonyl)-benzenesulfonamide] | 7550
NS(=O)(=O)c1cc(C(=O)c2ccc(-c3ccc(Cl)cc3)cc2)ccc1Cl [Example 66, 2-Chloro-5-(4′-chloro-biphenyl-4-carbonyl)-benzenesulfonamide] | 630
NS(=O)(=O)c1cc(C(=O)c2ccc(-c3cccc(Br)c3)cc2)ccc1Cl [Example 67, 5-(3′-Bromo-biphenyl-4-carbonyl)-2-chloro-benzenesulfonamide] | 5290
NS(=O)(=O)c1cc(C(=O)c2ccc(-c3cccc([N+](=O)[O-])c3)cc2)ccc1Cl [Example 68, 2-Chloro-5-(3′-nitro-biphenyl-4-carbonyl)-benzenesulfonamide] | 3150
NS(=O)(=O)c1cc(C(=O)c2ccc(-c3ccc(C(=O)O)cc3)cc2)ccc1Cl [Example 73, 4′-(4-Chloro-3-sulfamoyl-benzoyl)-biphenyl-4-carboxylic acid] | 610
COC(=O)c1ccc(-c2ccc(C(=O)c3ccc(Cl)c(S(N)(=O)=O)c3)cc2)cc1 [Example 74, 4′-(4-Chloro-3-sulfamoyl-benzoyl)-biphenyl-4-carboxylic acid methyl ester] | 240
NS(=O)(=O)c1cc(C(=O)c2ccc(-c3ccccc3)cc2)ccc1Cl [Example 76, 5-(Biphenyl-4-carbonyl)-2-chloro-benzenesulfonamide] | 12000
Cc1cccc(-c2ccc(C(=O)c3ccc(Cl)c(S(N)(=O)=O)c3)cc2)c1 [Example 77, 2-Chloro-5-(3′-methyl-biphenyl-4-carbonyl)-benzenesulfonamide] | 23100

Further lines, results first:

IC50 [nM] | Compound
840 | NS(=O)(=O)c1cc(C(=O)c2ccc(C(=O)NCc3ccccc3)cc2)ccc1Cl [Example 35, N-Benzyl-4-(4-chloro-3-sulfamoyl-benzoyl)-benzamide]
380 | NS(=O)(=O)c1cc(C(=O)c2ccc(-c3ccnc(Cl)c3)cc2)ccc1Cl [Example 43, 2-Chloro-5-[4-(2-chloro-pyridin-4-yl)-benzoyl]-benzenesulfonamide]
25300 | COc1ccc(C(=O)c2ccc(Cl)c(S(N)(=O)=O)c2)c(OC)c1 [Example 48, 2-Chloro-5-(2,4-dimethoxy-benzoyl)-benzenesulfonamide]
21300 | CC(C)(C)NC(=O)c1ccc(C(=O)c2ccc(Cl)c(S(N)(=O)=O)c2)cc1 [Example 52, N-tert-Butyl-4-(4-chloro-3-sulfamoyl-benzoyl)-benzamide]
27100 | NS(=O)(=O)c1cc(C(=O)c2ccc(C(=O)NCCc3ccccc3)cc2)ccc1Cl [Example 54, 4-(4-Chloro-3-sulfamoyl-benzoyl)-N-phenethyl-benzamide]
2630 | NS(=O)(=O)c1cc(C(=O)c2ccc(-c3ccccc3)cc2)ccc1Cl [Example 59, 5-(Biphenyl-4-carbonyl)-2-chloro-benzenesulfonamide]
1020 | Cc1ccc(-c2ccc(C(=O)c3ccc(Cl)c(S(N)(=O)=O)c3)cc2)cc1 [Example 61, 2-Chloro-5-(4′-methyl-biphenyl-4-carbonyl)-benzenesulfonamide]
1610 | NS(=O)(=O)c1cc(C(=O)c2ccc(-c3ccc(F)cc3)cc2)ccc1Cl [Example 65, 2-Chloro-5-(4′-fluoro-biphenyl-4-carbonyl)-benzenesulfonamide]
4010 | CC(=O)Nc1cccc(-c2ccc(C(=O)c3ccc(Cl)c(S(N)(=O)=O)c3)cc2)c1 [Example 70, N-[4′-(4-Chloro-3-sulfamoyl-benzoyl)-biphenyl-3-yl]-acetamide]
1400 | O=C(c1ccc(-c2cccc(CO)c2)cc1)c1ccc(Cl)c(S(=O)(=O)O)c1 [Example 71, 2-Chloro-5-(3′-hydroxymethyl-biphenyl-4-carbonyl)-benzenesulfonic acid]
130 | NS(=O)(=O)c1cc(C(=O)c2ccc(-c3ccc(C=O)cc3)cc2)ccc1Cl [Example 72, 2-Chloro-5-(4′-formyl-biphenyl-4-carbonyl)-benzenesulfonamide]
350 | CN(C)c1ccc(C(=O)c2ccc(Cl)c(S(N)(=O)=O)c2)cc1 [Example 78, 2-Chloro-5-(4-dimethylamino-benzoyl)-benzenesulfonamide]
